How the values were obtained:
[1] = target: Ephrin type-A receptor 4 (Homo sapiens) (UniProt P54764); assay: Inhibition of EPHA4 (unknown origin) at 10 uM after 120 mins P33 radiolabeled kinase activity assay
[2] = target: Serine/threonine-protein kinase OSR1 (Homo sapiens) (UniProt O95747); assay: Inhibition of OSR1 (unknown origin) at 10 uM after 120 mins P33 radiolabeled kinase activity assay
[3] = target: Ribosomal protein S6 kinase beta-1 (Homo sapiens) (UniProt P23443); assay: Inhibition of RPS6KB1 (unknown origin) at 10 uM after 120 mins P33 radiolabeled kinase activity assay
Ribosomal protein S6 kinase beta-1 (Homo sapiens), sequence (P23443 whole entry, looked up): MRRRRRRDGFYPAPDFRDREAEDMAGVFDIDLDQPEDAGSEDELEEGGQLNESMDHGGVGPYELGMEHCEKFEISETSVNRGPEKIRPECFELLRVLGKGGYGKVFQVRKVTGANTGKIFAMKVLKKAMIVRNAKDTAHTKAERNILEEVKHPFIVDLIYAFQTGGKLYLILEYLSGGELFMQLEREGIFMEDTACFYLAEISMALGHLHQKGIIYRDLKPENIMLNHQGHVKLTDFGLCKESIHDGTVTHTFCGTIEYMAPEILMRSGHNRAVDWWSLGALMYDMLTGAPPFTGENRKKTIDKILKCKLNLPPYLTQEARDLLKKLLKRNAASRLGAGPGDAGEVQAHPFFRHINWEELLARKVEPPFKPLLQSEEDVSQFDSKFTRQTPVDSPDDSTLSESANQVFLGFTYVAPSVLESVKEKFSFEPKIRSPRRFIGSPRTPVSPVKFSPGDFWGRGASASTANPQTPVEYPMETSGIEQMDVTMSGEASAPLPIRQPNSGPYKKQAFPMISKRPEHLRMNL

[4] = target: Serine/threonine-protein kinase pim-3 (Homo sapiens) (UniProt Q86V86); assay: Inhibition of PIM3 (unknown origin) at 10 uM after 120 mins P33 radiolabeled kinase activity assay
[5] = target: T1, Inhibitor of nuclear factor kappa-B kinase subunit alpha (Homo sapiens) (UniProt O15111); assay: Inhibition of IKKalpha (unknown origin) at 10 uM after 120 mins P33 radiolabeled kinase activity assay
T1 sequence (whole entry): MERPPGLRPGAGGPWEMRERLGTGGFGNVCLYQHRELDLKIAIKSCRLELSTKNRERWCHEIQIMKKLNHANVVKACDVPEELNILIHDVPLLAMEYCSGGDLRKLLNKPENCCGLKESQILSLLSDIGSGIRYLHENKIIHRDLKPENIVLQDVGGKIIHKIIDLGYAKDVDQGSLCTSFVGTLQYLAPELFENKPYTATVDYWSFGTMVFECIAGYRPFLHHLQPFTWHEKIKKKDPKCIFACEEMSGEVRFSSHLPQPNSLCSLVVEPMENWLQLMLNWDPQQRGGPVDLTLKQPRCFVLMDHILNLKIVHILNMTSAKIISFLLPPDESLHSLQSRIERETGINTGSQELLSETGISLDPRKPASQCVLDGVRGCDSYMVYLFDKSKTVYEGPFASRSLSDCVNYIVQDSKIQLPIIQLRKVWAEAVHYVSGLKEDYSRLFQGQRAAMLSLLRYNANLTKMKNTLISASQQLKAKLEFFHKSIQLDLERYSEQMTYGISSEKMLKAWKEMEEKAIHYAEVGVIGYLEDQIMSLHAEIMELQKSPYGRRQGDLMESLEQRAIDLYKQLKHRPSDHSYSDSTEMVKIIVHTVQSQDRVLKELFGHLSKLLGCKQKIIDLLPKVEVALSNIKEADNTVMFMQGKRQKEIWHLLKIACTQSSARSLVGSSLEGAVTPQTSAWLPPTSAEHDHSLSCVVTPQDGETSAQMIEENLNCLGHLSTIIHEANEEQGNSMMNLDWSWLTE

[6] = target: Serine/threonine-protein kinase MARK1 (Homo sapiens) (UniProt Q9P0L2); assay: Inhibition of MARK1 (unknown origin) at 10 uM after 120 mins P33 radiolabeled kinase activity assay
Serine/threonine-protein kinase MARK1 (Homo sapiens), sequence (Q9P0L2 whole entry, looked up): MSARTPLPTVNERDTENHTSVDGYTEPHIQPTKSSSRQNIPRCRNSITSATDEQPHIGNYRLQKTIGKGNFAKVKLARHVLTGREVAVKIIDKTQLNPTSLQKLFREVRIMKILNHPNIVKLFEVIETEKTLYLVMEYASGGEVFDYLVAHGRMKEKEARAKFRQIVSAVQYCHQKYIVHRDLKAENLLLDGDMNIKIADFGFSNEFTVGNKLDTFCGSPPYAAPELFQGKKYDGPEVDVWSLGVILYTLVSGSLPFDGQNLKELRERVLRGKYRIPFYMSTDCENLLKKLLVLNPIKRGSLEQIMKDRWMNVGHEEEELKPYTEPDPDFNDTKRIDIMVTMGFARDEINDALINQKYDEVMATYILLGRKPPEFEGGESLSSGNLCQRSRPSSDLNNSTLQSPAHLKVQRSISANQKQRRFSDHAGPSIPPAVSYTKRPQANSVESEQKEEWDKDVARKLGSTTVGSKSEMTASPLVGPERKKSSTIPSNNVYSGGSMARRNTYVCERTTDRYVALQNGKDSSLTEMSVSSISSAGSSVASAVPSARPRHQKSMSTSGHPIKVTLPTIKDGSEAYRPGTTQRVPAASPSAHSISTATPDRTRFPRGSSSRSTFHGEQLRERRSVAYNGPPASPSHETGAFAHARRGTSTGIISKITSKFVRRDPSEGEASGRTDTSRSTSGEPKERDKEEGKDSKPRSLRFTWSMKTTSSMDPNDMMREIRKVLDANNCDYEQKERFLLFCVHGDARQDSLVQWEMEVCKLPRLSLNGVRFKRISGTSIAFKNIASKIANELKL

[7] = target: T2, Muscle, skeletal receptor tyrosine-protein kinase (Homo sapiens) (UniProt O15146); assay: Inhibition of MUSK (unknown origin) at 10 uM after 120 mins P33 radiolabeled kinase activity assay
T2 sequence (whole entry): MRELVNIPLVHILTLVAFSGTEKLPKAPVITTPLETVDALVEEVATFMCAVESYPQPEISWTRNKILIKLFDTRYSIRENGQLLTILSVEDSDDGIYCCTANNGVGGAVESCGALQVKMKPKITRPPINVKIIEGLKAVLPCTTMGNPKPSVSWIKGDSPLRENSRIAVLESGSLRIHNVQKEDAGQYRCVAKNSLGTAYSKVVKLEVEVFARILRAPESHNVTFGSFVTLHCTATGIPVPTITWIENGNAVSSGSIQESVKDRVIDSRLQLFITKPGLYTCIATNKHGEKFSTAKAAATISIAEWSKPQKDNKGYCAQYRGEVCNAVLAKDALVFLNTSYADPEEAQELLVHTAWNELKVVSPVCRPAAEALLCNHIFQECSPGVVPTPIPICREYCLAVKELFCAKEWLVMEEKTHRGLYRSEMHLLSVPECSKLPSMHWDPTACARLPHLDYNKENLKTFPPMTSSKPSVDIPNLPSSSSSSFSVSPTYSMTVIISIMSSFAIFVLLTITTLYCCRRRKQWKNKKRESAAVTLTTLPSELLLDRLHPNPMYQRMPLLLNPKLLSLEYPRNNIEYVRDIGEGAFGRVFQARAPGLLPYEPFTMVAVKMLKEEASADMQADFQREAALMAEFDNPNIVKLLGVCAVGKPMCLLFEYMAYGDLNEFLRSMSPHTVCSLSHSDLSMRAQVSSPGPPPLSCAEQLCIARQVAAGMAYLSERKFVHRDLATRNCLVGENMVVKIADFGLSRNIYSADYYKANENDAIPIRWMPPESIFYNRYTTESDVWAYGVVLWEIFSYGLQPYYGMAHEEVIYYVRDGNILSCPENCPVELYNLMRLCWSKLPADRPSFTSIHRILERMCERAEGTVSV

[8] = target: Serine/threonine-protein kinase Chk2 (Homo sapiens) (UniProt O96017); assay: Inhibition of CHK2 (unknown origin) at 10 uM after 120 mins P33 radiolabeled kinase activity assay
Serine/threonine-protein kinase Chk2 (Homo sapiens), sequence (O96017 whole entry): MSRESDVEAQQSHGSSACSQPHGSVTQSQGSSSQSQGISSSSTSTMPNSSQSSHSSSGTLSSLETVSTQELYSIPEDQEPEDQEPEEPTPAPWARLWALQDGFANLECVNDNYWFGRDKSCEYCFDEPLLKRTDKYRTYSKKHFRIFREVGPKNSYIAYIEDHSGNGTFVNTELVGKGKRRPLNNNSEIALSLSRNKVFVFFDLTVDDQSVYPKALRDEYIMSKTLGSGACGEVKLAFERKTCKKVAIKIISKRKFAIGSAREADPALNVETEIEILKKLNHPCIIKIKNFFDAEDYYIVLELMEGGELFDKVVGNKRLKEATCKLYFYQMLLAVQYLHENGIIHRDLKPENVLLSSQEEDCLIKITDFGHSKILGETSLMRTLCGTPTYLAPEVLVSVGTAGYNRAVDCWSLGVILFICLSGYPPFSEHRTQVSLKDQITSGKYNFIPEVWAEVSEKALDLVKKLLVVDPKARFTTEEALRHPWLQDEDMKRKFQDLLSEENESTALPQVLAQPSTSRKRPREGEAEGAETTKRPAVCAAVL

Serine/threonine-protein kinase OSR1 (Homo sapiens), sequence (O95747 2-527 limits assumed): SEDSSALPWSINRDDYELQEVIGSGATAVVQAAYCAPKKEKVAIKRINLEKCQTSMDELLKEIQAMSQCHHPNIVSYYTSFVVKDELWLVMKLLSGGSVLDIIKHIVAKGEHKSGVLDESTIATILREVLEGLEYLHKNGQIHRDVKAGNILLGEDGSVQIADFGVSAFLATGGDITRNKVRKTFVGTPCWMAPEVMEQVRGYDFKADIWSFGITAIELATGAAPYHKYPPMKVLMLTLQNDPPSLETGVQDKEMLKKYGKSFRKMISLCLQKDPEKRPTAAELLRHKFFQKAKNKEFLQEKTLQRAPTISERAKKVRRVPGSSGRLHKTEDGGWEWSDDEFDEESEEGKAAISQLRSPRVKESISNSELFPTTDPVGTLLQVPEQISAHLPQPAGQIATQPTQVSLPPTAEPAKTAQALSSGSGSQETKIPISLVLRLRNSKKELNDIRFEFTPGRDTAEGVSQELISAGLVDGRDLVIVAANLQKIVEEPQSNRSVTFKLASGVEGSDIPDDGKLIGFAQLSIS
Ephrin type-A receptor 4 (Homo sapiens), sequence (P54764 whole entry): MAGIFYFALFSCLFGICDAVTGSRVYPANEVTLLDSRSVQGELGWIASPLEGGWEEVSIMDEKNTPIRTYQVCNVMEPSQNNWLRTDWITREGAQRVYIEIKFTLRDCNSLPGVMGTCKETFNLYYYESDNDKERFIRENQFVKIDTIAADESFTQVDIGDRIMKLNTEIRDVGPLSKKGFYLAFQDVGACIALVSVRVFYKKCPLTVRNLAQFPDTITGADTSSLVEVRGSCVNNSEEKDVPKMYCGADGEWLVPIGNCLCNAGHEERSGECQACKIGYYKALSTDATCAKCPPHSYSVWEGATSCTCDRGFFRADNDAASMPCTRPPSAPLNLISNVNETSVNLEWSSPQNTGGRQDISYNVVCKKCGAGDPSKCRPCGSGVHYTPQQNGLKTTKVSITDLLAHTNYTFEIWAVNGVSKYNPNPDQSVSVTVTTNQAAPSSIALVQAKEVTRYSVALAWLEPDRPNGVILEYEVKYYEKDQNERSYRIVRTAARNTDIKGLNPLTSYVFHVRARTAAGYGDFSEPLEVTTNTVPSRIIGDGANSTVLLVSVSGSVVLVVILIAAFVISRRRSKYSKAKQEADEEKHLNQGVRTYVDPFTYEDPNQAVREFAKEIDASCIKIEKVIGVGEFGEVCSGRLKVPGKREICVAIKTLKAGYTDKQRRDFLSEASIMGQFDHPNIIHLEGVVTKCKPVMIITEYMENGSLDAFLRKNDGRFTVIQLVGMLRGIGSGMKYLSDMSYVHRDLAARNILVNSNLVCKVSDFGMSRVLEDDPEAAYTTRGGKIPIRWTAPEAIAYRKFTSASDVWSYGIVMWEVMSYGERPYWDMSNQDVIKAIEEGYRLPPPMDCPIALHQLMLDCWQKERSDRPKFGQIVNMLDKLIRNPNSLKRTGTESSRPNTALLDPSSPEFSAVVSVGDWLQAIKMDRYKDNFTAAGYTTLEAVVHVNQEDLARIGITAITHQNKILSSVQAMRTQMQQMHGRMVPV

COCCNC(=O)c1ccc2c(c1)nc(-c1cnc(-c3ccc(Cl)cc3)[nH]1)n2CCOC
inhibition [1]: 14.3% | inhibition [2]: 3.1% | inhibition [3]: 6.1% | inhibition [4]: 3.38% | inhibition [5]: 2.39% | inhibition [6]: 3.28% | inhibition [7]: -5.11% | inhibition [8]: -5.19%

CS(=O)(=O)c1cccc(Nc2nccc(-c3sc(N4CCOCC4)nc3-c3cccc(NS(=O)(=O)c4c(F)cccc4F)c3)n2)c1
inhibition [1]: 70.5% | inhibition [2]: 10.1% | inhibition [3]: 48.5% | inhibition [4]: 17.3% | inhibition [5]: 3.48% | inhibition [6]: 10.3% | inhibition [7]: 33.2% | inhibition [8]: 51.7%

CC(C)(C)c1cc(NC(=O)Nc2ccc(Oc3ccncc3)cc2)no1
inhibition [1]: 97% | inhibition [2]: 22.6% | inhibition [3]: 84.2% | inhibition [4]: 69.2% | inhibition [5]: 11.2% | inhibition [6]: 4.99% | inhibition [7]: 16.4% | inhibition [8]: 11.1%

Source: ChEMBL document CHEMBL3627608, “Crystal structures of human RIP2 kinase catalytic domain complexed with ATP-competitive inhibitors: Foundations for understanding inhibitor selectivity” (Bioorg Med Chem, 2015)
